Values quoted from earlier work, collected in patent US20150031700A1, “Methods of Treating Cutaneous Flushing Using Selective Alpha-2-adrenergic Receptor Agonists” (GALDERMA LABORATORIES INC., priority 2003, published 2015).

Tests used:
[1] = toxicity studies; Walters, 1996
[2] = tested on: α2 adrenergic receptor; conditions: compared with clonidine; Burke et al., 1996
[3] = tested on: α2 adrenergic receptor; conditions: α2 vs α1 adrenergic receptor, compared with clonidine

| Compound | oncogenic or teratogenic activity [1] | toxicity [1] | α2 adrenergic receptor activity relative to clonidine [2] [fold] | selectivity for the α2 adrenergic receptor relative to clonidine [3] |
| --- | --- | --- | --- | --- |
| brimonidine tartrate | no oncogenic or teratogenic activity | nontoxic | 10 |  |
| Brc1c(NC2=NCCN2)ccc2nccnc12 [brimonidine] |  |  |  | 7-12 fold |
